Experimental data published in US4088772A, “Methanodibenzocycloheptapyrroles” (E. I. Du Pont de Nemours and Company, priority 1975, dated 1978).
Structures can show the parent of a compound that is named as a salt. Where two headings read alike, the source gives them in different places.

Tests used:
female white mice = assay: in vivo; conditions: oral; for LD50 / Catatonia ED50 / Exploratory Loss Visual ED50 / Muscle Tone ED50 / Ptosis ED50 / Reflexes Grip ED50 / Reflexes Lift ED50 / Reflexes Pinna ED50 / Tremors ED50: Table 1; for LD50: 24-hour value; for Catatonia ED50 / Exploratory Loss Visual ED50 / Muscle Tone ED50 / Ptosis ED50 / Reflexes Grip ED50 / Reflexes Lift ED50 / Reflexes Pinna ED50 / Tremors ED50 / ED50: mice; for ED50: Mus musculus, po
Experimental: (§1) Groups of five Carworth CF1 S female mice, 16-20 g each, were fasted 16-22 hours before use. The mice were put in opaque plastic "shoe-box" cages 15-30 min. before injection, and then treated orally with 4, 12, 36, 108 and 324 mg/kg of the compound to be tested as a 13 mg/ml solution in 1% aqueous distilled water solution of methylcellulose (Methocel®). Each dose was given in a standard volume of 0.45 ml. Observations were made at 0.5, 2 and 24 hours after dosing. ED50 values were calculated for each parameter including death (LD50). The ED50 and LD50 values are the doses at which 50% of the naimals would be expected to respond.
(§2) The mouse is placed on a stainless steel wire mesh screen (8 × 12 inches, 3 mesh per inch, 1/4 inch mesh openings) "shoe-box" lid (1 inch high) and is observed for normal activities, such as nose movements, head movements with apparent visual examination of the area, and/or walking around on the screen. Absence of or marked depression of these activities for 5 seconds constitutes loss of exploratory activity.
(§3) The mouse is picked up by the tail and placed on the screen with its head facing the observer. Bilateral eyelid closure of 50% or more two seconds after placement is considered ptosis.
(§4) The mouse is placed with its front paws on the edge of a stainless steel "shoe-box" cover, 1 inch high, covered with adhesive tape. Failure to remove both paws from the cover's edge within 5 seconds constitutes catatonia.
(§5) The observer gently strokes the abdominal musculature of the mouse with thumb and forefinger. Flaccidity (or rarely, tenseness) is recorded.
(§6) The mouse is gently swung by the tail toward a horizontal 12 gauge wire tautly stretched 25 cm above the bench. After the mouse grasps the wire with its forepaws, its posterior end is held directly below the wire. A normal mouse grasps the wire with its forepaws and immediately lifts its hind limbs to the wire. Failure to grasp the wire with the forepaws in both trials constitutes loss of the grip reflex; failure to lift the hind limbs to grasp the wire with at least one hind paw within 5 seconds constitutes loss of the lift reflex.
(§7) The mouse is placed on the bar 10-20 cm horizontally and 9 cm vertically from a Galton whistle adjusted for 13 kc (5 mm on the whistle scale) and is subjected to several short bursts of sound.
(§8) An effective tranquilizer should induce little or no tremor response. […] Tremors include fine or coarse and intermittent or continuous tremors.

in vivo = conditions: mouse, in vivo, po
Experimental: as §1, §2, §3, §4, §5, §6, §7, §8

[1] = system: phenylquinone-induced writhing; assay: Phenylquinone writhing test (analgesia); format: in vivo, mouse (Carworth CF1 S female); conditions: for ED50: Mus musculus, po, Table 1, mice; for Phenylquinone Analgesia ED50: Table 1, oral, mice
Description: This mouse test is predictive of analgesic response in humans. [E. Siegmund, R. Cadmus and G. Lee, Proc. Soc.
ED50 values were obtained graphically from the data.

[2] = read-out: Catatonia ED50, Table 1
[3] = read-out: Exploratory Loss Visual ED50, Table 1
[4] = read-out: Muscle Tone ED50, Table 1
[5] = read-out: Reflexes Grip ED50, Table 1
[6] = read-out: Reflexes Lift ED50, Table 1
[7] = read-out: Reflexes Pinna ED50, Table 1
[8] = read-out: Catatonia ED50, Table III
[9] = read-out: Exploratory Loss Visual ED50, Table III
[10] = read-out: Muscle Tone ED50, Table III
[11] = read-out: Ptosis ED50, Table III
[12] = read-out: Reflexes Grip ED50, Table III
[13] = read-out: Reflexes Lift ED50, Table III
[14] = read-out: Reflexes Pinna ED50, Table III

Molecule	LD50 (female white mice)	Catatonia ED50 (female white mice)	Exploratory Loss Visual ED50 (female white mice)	Muscle Tone ED50 (female white mice)	Ptosis ED50 (female white mice)	Reflexes Grip ED50 (female white mice)	Reflexes Lift ED50 (female white mice)	Reflexes Pinna ED50 (female white mice)	Tremors ED50 (female white mice)	LD50 at 24 h (in vivo)	ED50 (female white mice; [2])	ED50 (female white mice; [3])	ED50 (female white mice; [4])	ED50 (female white mice; read-out: Ptosis ED50, Table 1)	ED50 (female white mice; [5])	ED50 (female white mice; [6])	ED50 (female white mice; [7])	ED50 (female white mice; [8])	ED50 (female white mice; [9])	ED50 (female white mice; [10])	also measured
5- and 11-Chloro-2-cyclohexylmethyl-2,3,8,12b-tetrahydro-1H-3a,8-methanodibenzo[3,4:6,7]cyclohepta[1,2-c]pyrrole [Example 44]	> 324 mg/kg	19 mg/kg	17 mg/kg	12 mg/kg	< 3 mg/kg	> 324 mg/kg	36 mg/kg	11 mg/kg	> 324 mg/kg												
5- and 11-Chloro-2-methyl-2,3,8,12b-tetrahydro-1H- 3a,8-methanodibenzo[3,4:6,7]cyclohepta[1,2-c]pyrrole [Example 43]	200 mg/kg	100 mg/kg	7 mg/kg	20 mg/kg	20 mg/kg	60 mg/kg	20 mg/kg	20 mg/kg	36 mg/kg												
c1ccc2c(c1)[C@@H]1C[C@@]3(CN(CC4CCCC4)C[C@H]23)c2ccccc21 (relative stereo) [Cyclopentylmethyl (free base), 2-Cyclopentylmethyl-2,3,8,12b-tetrahydro-1H-3a,8-methanodibenzo[3,4:6,7]cyclohepta[1,2-c]pyrrole]										> 324 mg/kg	7 mg/kg	< 3 mg/kg	< 3 mg/kg	< 3 mg/kg	260 mg/kg	4.5 mg/kg	< 3 mg/kg				ED50 [1]: < 130 mg/kg
C1=CCCC(CN2C[C@@H]3c4ccccc4[C@@H]4C[C@@]3(C2)c2ccccc24)CC1 (relative stereo) [Example 33, 2-(4-Cycloheptenylmethyl)-2,3,8,12b-tetrahydro-1H-3a,8-methanodibenzo[3,4:6,7]cyclohepta[1,2-c]pyrrole]										> 324 mg/kg	11 mg/kg	9 mg/kg	7 mg/kg	4 mg/kg	> 324 mg/kg	19 mg/kg	37 mg/kg				ED50 (in vivo): > 324 mg/kg; ED50 [1]: 3.3 mg/kg
c1ccc2c(c1)[C@@H]1C[C@@]3(CN(CC4CCCCCCC4)C[C@H]23)c2ccccc21 (relative stereo) [Example 34, 2-Cyclooctylmethyl-2,3,8,12b-tetrahydro-1H-3a,8-methanodibenzo[3,4:6,7]cyclohepta[1,2-c]pyrrole]										> 324 mg/kg	23 mg/kg	40 mg/kg	21 mg/kg	4 mg/kg	> 324 mg/kg	62 mg/kg	97 mg/kg				ED50 (in vivo): > 324 mg/kg; ED50 [1]: 6 mg/kg
O=[N+]([O-])c1ccc2c(c1)[C@]13C[C@H]2c2ccccc2[C@H]1CN(CC1CCCC1)C3 (relative stereo) [Example 63, 5-Nitro-2-cyclopentylmethyl-2,3,8,12b-tetrahydro-1H-3a,8-methanodibenzo[3,4:6,7]cyclohepta[1,2-c]pyrrole Hydrochloride]										> 324 mg/kg								200 mg/kg	12 mg/kg	36 mg/kg	ED50 (female white mice; [11]): 7 mg/kg; ED50 (female white mice; [12]): > 324 mg/kg; ED50 (female white mice; [13]): 100 mg/kg; ED50 (female white mice; [14]): 20 mg/kg
Cc1ccc2c(c1)[C@]13C[C@H]2c2ccccc2[C@H]1CN(CC1CCCC1)C3 (relative stereo) [Example 89, 5-Methyl-2-cyclopentylmethyl-2,3,8,12b-tetrahydro-1H-3a,8-methanodibenzo[3,4:6,7]cyclohepta[1,2-c]pyrrole]										> 81 mg/kg								50 mg/kg	9 mg/kg	50 mg/kg	ED50 (female white mice; [11]): 15 mg/kg; ED50 (female white mice; [12]): < 81 mg/kg; ED50 (female white mice; [13]): 25 mg/kg; ED50 (female white mice; [14]): 15 mg/kg
C[N+]1([O-])C[C@@H]2c3ccccc3[C@@H]3C[C@@]2(C1)c1ccccc13 (relative stereo) [Methyl-N-oxide]										> 324 mg/kg	60 mg/kg	60 mg/kg	100 mg/kg	36 mg/kg	200 mg/kg	36 mg/kg	60 mg/kg				ED50 (in vivo): 36 mg/kg
c1ccc2c(c1)C1CC3(CN(CC4CCCC4)CC23)c2ccccc21 (single isomer, unassigned; (+)) [(+)-Cyclopentylmetnyl, 2-Cyclopentylmethyl-2,3,8,12b-tetrahydro-trans-1H,-3a,8-methanodibenzo[3,4:6,7]cyclohepta[1,2-c]pyrrole]	> 324 mg/kg	36 mg/kg	36 mg/kg	60 mg/kg	20 mg/kg	200 mg/kg	60 mg/kg	20 mg/kg	> 324 mg/kg												Phenylquinone Analgesia ED50 [1]: 24 mg/kg
CN1CC2c3cc(Cl)ccc3C3CC2(C1)c1ccccc13.Cl (stereo not drawn) [Example 80, 11-Chloro-2-methyl-2,3,8,12b-tetrahydro-1H-3a,8-methanodibenzo[3,4:6,7]cyclohepta[1,2-c]pyrrole Hydrochloride]										200 mg/kg								100 mg/kg	7 mg/kg	20 mg/kg	ED50 (female white mice; [11]): 20 mg/kg; ED50 (female white mice; [12]): 60 mg/kg; ED50 (female white mice; [13]): 20 mg/kg; ED50 (female white mice; [14]): 20 mg/kg
Cl.Clc1ccc2c(c1)C1CN(CC3CCCCC3)CC13CC2c1ccccc13 (stereo not drawn) [Example 81, 11-Chloro-2-cyclohexylmethyl-2,3,8,12b-tetrahydro-1H-3a,8-methanodibenzo[3,4:6,7]cyclohepta[1,2-c]-pyrrole Hydrochloride]										> 324 mg/kg								19 mg/kg	17 mg/kg	12 mg/kg	ED50 (female white mice; [11]): < 3 mg/kg; ED50 (female white mice; [12]): > 324 mg/kg; ED50 (female white mice; [13]): 36 mg/kg; ED50 (female white mice; [14]): 11 mg/kg
Nitro-2-methyl-2,3,8,12b-tetrahydro-1H-3a,8-methanodibenzo[3,4:6,7]cyclohepta[1,2-c]pyrrole Hydrochloride [Example 57]	200 mg/kg	> 324 mg/kg	20 mg/kg	60 mg/kg	12 mg/kg	> 324 mg/kg	> 324 mg/kg	12 mg/kg	100 mg/kg												Phenylquinone Analgesia ED50 [1]: 5 mg/kg
